Source: ChEMBL document CHEMBL1136063, “Oxal hydroxamic acid derivatives with inhibitory activity against matrix metalloproteinases” (Bioorg Med Chem Lett, 2002)
pKi: −log10 of the molar value.

Legend:
[1] = target: T1, Matrix metalloproteinase-9 (Homo sapiens, UniProt P14780); assay: Inhibitory activity against human gelatinase B (matrix metalloprotease-9)
Neutrophil collagenase [2] = target: T2, Neutrophil collagenase (Homo sapiens, UniProt P22894); assay: Percent remaining enzyme activity (RA) in neutrophil collagenase (matrix metalloprotease-8); design: concentration or dose not given beside the values
Target sequence in this assay (P22894 101-467 limits assumed): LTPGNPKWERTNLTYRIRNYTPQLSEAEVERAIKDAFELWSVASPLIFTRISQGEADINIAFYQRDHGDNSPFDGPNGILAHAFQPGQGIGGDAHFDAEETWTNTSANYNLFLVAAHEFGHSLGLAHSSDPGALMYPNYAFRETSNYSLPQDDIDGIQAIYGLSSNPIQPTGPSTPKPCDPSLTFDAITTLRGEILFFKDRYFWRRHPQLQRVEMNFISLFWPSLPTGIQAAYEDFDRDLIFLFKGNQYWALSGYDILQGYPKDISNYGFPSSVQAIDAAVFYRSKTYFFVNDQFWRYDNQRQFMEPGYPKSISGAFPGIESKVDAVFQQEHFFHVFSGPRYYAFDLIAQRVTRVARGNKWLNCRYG

[3] = target: T1, Matrix metalloproteinase-9; assay: Percent remaining enzyme activity (RA) in human gelatinase B (matrix metalloprotease-9); design: concentration or dose not given beside the values
[4] = target: T3, Matrix metalloproteinase-14 (Homo sapiens, UniProt P50281); assay: Percent remaining enzyme activity (RA) in catalytic domains of the membrane type MT1-MMP (matrix metalloprotease-14); design: concentration or dose not given beside the values
Neutrophil collagenase [5] = target: T2, Neutrophil collagenase; assay: Tested for its inhibitory activity against neutrophil collagenase (Matrix metalloprotease-8)
Target sequence in this assay (P22894 whole entry): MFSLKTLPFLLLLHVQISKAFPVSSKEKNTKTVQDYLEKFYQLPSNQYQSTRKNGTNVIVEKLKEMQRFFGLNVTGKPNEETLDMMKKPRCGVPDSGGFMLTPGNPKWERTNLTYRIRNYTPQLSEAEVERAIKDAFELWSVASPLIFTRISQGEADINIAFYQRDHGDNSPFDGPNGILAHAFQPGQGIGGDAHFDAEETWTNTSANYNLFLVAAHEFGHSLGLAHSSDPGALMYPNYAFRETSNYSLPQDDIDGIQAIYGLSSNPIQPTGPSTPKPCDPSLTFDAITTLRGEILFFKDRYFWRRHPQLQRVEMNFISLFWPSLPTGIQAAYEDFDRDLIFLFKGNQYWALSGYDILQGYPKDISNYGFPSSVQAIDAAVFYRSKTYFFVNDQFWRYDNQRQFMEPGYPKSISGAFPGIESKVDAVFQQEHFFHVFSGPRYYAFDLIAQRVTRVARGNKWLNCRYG

[6] = target: T3, Matrix metalloproteinase-14; assay: (§1) Inhibition of membrane type MT1-MMP (Matrix metalloprotease-14)catalytic domain
[7] = target: T3, Matrix metalloproteinase-14; assay: as §1; conditions: concentration not given here

T1 sequence (P14780 whole entry): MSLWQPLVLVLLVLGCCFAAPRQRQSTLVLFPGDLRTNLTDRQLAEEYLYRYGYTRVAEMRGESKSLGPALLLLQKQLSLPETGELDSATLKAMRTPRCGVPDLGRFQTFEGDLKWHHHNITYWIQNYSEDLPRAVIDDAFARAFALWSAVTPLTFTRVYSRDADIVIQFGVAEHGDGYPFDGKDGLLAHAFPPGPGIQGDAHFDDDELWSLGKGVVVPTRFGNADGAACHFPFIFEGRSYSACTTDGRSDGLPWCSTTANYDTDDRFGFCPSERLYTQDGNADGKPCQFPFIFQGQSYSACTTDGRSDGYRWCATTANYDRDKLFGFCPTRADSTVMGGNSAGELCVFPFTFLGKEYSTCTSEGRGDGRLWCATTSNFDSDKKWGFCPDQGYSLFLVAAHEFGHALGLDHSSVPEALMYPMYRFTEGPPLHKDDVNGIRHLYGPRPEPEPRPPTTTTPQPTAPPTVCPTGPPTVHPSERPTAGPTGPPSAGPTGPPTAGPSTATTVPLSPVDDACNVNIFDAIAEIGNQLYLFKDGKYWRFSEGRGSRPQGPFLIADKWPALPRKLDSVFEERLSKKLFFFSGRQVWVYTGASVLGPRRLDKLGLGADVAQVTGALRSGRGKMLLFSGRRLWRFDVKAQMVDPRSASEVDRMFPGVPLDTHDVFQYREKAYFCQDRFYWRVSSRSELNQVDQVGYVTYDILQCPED

Row | Compound | pKi [1] | residual activity (Neutrophil collagenase [2]) [%] | residual activity [3] [%] | residual activity [4] [%] | pKi (Neutrophil collagenase [5]) | pKi [6] | inhibition [7] [%]
1 | CN(C)C(=O)[C@H](Cc1ccc2ccccc2c1)NC(=O)C(=O)NO | 4.36 | 15 | 19 | 30 | 5.22 |  | 
2 | C[C@H](NC(=O)[C@H](Cc1ccc(O)cc1)NC(=O)C(=O)NO)c1ccccc1 | 6.22 | 0 | 0 | 54 | 6.60 |  | 
3 | C[C@@H](NC(=O)C(=O)NO)c1ccc2ccccc2c1 | 5.48 | 43 | 7 | 54 |  |  | 
4 | O=C(NO)C(=O)NCCC(NC(=O)C(=O)NO)C1CCCCC1 (centres undefined) |  | 39 | 5 | 48 |  |  | 
5 | C[C@H](NC(=O)C(=O)NO)C(=O)N[C@@H](C)c1ccccc1 | 5.05 | 9 | 35 |  | 5.22 | 3.74 | 80
6 | CC(OCc1ccccc1)[C@H](NC(=O)C(=O)NO)C(=O)N[C@@H](C)c1ccccc1 (some centres undefined) | 5.49 | 8 | 11 | 71 | 5.52 |  | 
7 | CN(C)C(=O)[C@H](Cc1ccc(COc2ccccc2)cc1)NC(=O)C(=O)NO | 5.52 | 43 | 7 | 37 | 4.66 |  | 
8 | CN(C)C(=O)[C@H](Cc1ccccc1)NC(=O)C(=O)NO | 4.85 | 48 | 25 | 15 | 4.42 | 5.02 | 
9 | CCCCC(CC)COCCCNC(=O)C(=O)NO (centres undefined) | 6.60 | 12 | 3 | 14 | 5.15 | 5.05 | 
10 | CC(OCc1ccccc1)[C@H](NC(=O)C(=O)NO)C(=O)N(C)C (some centres undefined) | 5.40 | 67 | 18 | 66 | 4.12 |  | 
11 | C[C@H](NC(=O)[C@H](CC(=O)OCc1ccccc1)NC(=O)C(=O)NO)c1ccccc1 | 6.22 | 1 | 3 | 53 |  |  | 
12 | C[C@H](NC(=O)[C@H](Cc1cccc2ccccc12)NC(=O)C(=O)NO)c1ccccc1 | 6.82 | 0 | 1 |  | 6.52 | 4.54 | 
13 | C[C@H](NC(=O)[C@H](Cc1ccc(OCc2ccccc2)cc1)NC(=O)C(=O)NO)c1ccccc1 |  | 5 | 11 | 69 |  |  | 
14 | CN(C)C(=O)[C@H](Cc1c[nH]c2ccccc12)NC(=O)C(=O)NO | 5.36 | 44 | 25 | 33 | 4.55 | 4.82 | 
15 | CN(C)C(=O)[C@H](Cc1cccc2ccccc12)NC(=O)C(=O)NO | 5.09 | 47 | 15 | 26 |  |  | 
16 | C[C@H](NC(=O)C(=O)NO)c1ccc2ccccc2c1 |  | 89 | 67 | 80 |  |  | 
17 | O=C(NO)C(=O)N[C@@H](Cc1ccc(COc2ccccc2)cc1)C(=O)NO |  | 5 | 2 | 23 |  |  | 

Row | Compound | pKi [1] | residual activity (Neutrophil collagenase [2]) [%] | residual activity [3] [%] | residual activity [4] [%] | pKi (Neutrophil collagenase [5]) | pKi [6] | inhibition [7] [%]
18 | O=C(NO)C(=O)NCCc1c[nH]c2ccccc12 | 6.10 | 18 | 3 | 48 |  |  | 
19 | C[C@H](NC(=O)[C@H](Cc1ccccc1)NC(=O)C(=O)NO)c1ccccc1 | 6.05 | 1 | 1 | 36 | 6.37 | 4.85 | 
20 | C[C@H](NC(=O)[C@H](Cc1ccc(NC(=O)Nc2ccccc2)cc1)NC(=O)C(=O)NO)c1ccccc1 | 6.10 | 6 | 5 | 74 | 6.00 |  | 
21 | O=C(NO)C(=O)NCCc1c[nH]c2ccc(Cl)cc12 | 6.46 | 15 | 2 | 35 | 4.85 | 4.46 | 
22 | CC(C)C[C@H](NC(=O)C(=O)NO)C(=O)N[C@H](C)c1ccccc1 |  | 74 | 60 | 79 |  |  | 
23 | CCCC[C@H](NC(=O)C(=O)NO)C(=O)N[C@H](Cc1ccc(OCc2ccccc2)cc1)C(=O)N(C)C | 5.12 | 34 | 13 | 29 |  | 4.48 | 
24 | O=C(NO)C(=O)NCCN(C(=O)C(=O)NO)c1cccc2ccccc12 | 7.00 | 14 | 0 | 20 |  |  | 
25 | C[C@H](NC(=O)[C@H](COCc1ccccc1)NC(=O)C(=O)NO)c1ccccc1 | 5.48 | 1 | 6 | 19 |  | 4.96 | 
26 | CC(NC(=O)[C@H](Cc1ccccc1)NC(=O)C(=O)NO)c1cccc2ccccc12 (some centres undefined) |  | 5 | 2 | 42 |  |  | 
27 | CN(C)C(=O)[C@H](COCc1ccccc1)NC(=O)C(=O)NO |  | 56 | 40 | 41 |  |  | 
28 | CC(C)C[C@H](NC(=O)C(=O)NO)C(=O)N(C)C |  | 72 | 55 | 61 |  |  | 
29 | C[C@H](NC(=O)[C@H](Cc1ccc2ccccc2c1)NC(=O)C(=O)NO)c1ccccc1 | 6.30 | 4 | 5 | 37 | 6.00 |  | 
30 | C[C@H](NC(=O)[C@H](Cc1c[nH]c2ccccc12)NC(=O)C(=O)NO)c1ccccc1 | 7.00 | 2 | 1 | 36 | 6.40 |  | 
31 | CNC(=O)[C@H](Cc1ccc(OCc2ccccc2)cc1)NC(=O)C(=O)NO | 5.70 | 4 | 1 | 53 | 5.82 |  | 
32 | CN(C)C(=O)[C@@H](Cc1ccc(OCc2ccccc2)cc1)NC(=O)[C@H](Cc1ccccc1)NC(=O)C(=O)NO | 6.00 | 10 | 3 | 5 |  | 5.85 | 
33 | CC(C)C[C@H](NC(=O)C(=O)NO)C(=O)N[C@@H](C)c1ccccc1 | 5.26 | 3 | 9 | 54 | 5.77 | 4.70 | 
34 | C[C@H](NC(=O)[C@H](Cc1ccc(NC(=O)OCc2ccccc2)cc1)NC(=O)C(=O)NO)c1ccccc1 |  | 32 | 22 | 76 |  |  | 
